The values that follow come from PMC11233931, “Remodeling tumor‐associated macrophage for anti‐cancer effects by rational design of irreversible inhibition of mitogen‐activated protein kinase‐activated protein kinase 2” (MedComm, 2024).

SMILES strings stand for the structures.

Assay in all cases: Eurofins kinase selectivity profile against 380 other human recombinant kinases (Table S2)
Holding throughout (assay type): biochemical

The target in assay [1] is T1, 380 human recombinant protein kinases (Homo sapiens, UniProt O96013).
T1 construct: purchased Eurofins (Celle Lévescault)
T1 sequence (O96013 whole entry): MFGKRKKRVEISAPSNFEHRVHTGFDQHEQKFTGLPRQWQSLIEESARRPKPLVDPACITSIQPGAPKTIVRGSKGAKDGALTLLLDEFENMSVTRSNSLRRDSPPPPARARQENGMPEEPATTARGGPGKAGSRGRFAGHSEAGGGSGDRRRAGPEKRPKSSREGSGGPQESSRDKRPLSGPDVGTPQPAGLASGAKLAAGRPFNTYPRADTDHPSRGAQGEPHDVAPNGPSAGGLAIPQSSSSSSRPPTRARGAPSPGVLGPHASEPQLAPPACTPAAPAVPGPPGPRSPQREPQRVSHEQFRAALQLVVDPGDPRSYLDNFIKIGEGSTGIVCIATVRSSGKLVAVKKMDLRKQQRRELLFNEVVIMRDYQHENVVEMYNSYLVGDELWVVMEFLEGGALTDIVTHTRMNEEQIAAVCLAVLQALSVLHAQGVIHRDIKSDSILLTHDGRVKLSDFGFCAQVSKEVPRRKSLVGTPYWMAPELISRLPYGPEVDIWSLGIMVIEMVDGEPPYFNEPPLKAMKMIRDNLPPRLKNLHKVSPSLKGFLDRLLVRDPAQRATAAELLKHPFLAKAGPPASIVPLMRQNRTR
The note with it: PAK4(h), read-out: Inhibition rate. The essentials: (§1)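 Selectivity panel of 380 human recombinant protein kinases, screened by Eurofins at a range of concentrations.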

For assay [2], the target named is T2, 380 human recombinant protein kinases (Homo sapiens, UniProt P07333).
T2 construct: purchased Eurofins (Celle Lévescault)
T2 sequence (P07333 20-972): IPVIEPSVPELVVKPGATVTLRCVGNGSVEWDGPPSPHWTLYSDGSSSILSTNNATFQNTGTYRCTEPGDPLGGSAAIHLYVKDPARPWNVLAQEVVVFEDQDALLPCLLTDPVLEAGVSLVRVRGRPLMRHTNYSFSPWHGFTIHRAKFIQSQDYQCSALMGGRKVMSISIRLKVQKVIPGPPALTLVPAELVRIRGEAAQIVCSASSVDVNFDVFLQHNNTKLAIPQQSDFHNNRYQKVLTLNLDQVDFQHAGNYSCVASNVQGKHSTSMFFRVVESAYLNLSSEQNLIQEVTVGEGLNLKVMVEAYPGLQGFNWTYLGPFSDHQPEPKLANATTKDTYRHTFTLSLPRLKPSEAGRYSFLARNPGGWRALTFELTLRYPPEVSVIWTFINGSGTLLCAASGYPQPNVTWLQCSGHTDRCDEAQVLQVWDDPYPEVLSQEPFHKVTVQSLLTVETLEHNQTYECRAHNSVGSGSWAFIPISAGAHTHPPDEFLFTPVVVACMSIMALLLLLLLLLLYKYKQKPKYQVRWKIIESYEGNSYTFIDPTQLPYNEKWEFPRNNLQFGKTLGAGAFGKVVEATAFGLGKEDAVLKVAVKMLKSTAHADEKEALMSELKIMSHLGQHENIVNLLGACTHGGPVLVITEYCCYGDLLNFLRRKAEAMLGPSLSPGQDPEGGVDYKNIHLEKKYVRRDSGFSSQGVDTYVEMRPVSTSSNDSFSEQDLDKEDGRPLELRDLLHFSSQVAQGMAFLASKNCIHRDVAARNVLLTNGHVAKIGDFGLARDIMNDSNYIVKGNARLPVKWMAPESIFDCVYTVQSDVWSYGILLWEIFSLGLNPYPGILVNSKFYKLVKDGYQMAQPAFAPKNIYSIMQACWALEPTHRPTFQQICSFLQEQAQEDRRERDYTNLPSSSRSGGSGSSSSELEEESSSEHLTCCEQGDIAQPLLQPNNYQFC
The conditions noted are these: Fms(h), read-out: Inhibition rate. An outline of the steps:
as §1

The target of assay [3] is T3, 380 human recombinant protein kinases (Homo sapiens, UniProt Q8N568).
T3 construct: purchased Eurofins (Celle Lévescault)
T3 sequence (Q8N568 whole entry): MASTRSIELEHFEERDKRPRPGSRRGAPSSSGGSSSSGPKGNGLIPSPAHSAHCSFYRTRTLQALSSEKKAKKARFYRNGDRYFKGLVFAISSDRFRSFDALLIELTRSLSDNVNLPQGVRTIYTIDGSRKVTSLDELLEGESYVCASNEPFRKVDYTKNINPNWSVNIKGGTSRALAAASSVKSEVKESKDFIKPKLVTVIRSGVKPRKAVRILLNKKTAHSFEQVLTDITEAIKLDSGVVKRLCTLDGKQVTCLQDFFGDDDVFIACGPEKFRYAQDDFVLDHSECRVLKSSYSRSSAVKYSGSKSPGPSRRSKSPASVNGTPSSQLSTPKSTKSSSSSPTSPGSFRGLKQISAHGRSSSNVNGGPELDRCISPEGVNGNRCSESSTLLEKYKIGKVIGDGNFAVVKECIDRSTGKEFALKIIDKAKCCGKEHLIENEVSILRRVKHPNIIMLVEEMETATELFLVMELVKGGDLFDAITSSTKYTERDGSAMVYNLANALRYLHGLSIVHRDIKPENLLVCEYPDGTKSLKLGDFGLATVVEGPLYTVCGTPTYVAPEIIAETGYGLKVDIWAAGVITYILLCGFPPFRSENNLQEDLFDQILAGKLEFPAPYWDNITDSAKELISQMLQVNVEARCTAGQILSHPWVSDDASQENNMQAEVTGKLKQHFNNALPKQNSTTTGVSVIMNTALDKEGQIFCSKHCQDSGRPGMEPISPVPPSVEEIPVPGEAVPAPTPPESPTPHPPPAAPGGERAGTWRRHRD
The note with it: DCAMKL2(h), read-out: Inhibition rate. An outline of the steps: as §1

For assay [4], the target named is T4, 380 human recombinant protein kinases (Homo sapiens, UniProt Q96PY6).
T4 construct: purchased Eurofins (Celle Lévescault)
T4 sequence (Q96PY6 1-1258): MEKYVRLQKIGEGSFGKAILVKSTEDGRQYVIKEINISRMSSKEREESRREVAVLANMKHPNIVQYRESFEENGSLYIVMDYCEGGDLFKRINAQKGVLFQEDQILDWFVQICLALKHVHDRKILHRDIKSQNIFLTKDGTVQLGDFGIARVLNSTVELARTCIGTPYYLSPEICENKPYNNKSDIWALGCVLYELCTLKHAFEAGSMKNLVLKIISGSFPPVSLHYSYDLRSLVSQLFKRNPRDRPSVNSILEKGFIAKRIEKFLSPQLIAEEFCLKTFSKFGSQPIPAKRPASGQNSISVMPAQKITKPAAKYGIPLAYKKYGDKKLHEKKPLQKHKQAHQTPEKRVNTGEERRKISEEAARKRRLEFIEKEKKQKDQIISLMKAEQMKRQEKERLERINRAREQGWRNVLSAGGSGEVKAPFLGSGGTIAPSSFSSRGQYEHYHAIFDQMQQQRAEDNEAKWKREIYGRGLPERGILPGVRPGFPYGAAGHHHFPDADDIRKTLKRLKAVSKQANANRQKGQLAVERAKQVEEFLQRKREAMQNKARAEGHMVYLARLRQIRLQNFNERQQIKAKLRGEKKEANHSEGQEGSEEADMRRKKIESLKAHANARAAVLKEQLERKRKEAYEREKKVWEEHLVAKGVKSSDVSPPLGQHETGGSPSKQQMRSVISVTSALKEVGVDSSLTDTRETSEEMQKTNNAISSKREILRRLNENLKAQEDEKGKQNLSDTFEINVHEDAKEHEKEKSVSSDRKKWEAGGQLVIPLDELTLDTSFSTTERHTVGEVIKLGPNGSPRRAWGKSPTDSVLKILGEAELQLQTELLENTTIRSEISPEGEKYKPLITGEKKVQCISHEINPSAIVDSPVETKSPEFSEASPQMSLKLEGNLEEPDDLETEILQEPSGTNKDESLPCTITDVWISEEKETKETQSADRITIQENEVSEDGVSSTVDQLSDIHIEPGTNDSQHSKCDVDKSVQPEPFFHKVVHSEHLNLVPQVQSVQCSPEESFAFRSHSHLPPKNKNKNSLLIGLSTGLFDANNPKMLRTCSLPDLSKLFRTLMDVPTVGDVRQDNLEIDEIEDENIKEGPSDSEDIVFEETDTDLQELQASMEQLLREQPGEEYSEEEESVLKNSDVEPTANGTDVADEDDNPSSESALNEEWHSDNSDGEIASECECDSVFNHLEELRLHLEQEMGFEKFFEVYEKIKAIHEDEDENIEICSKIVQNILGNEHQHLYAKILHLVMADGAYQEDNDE
The conditions noted are these: NEK1(h), read-out: Inhibition rate. The essentials:
as §1

The target of assay [5] is T5, 380 human recombinant protein kinases (Homo sapiens, UniProt Q9NZJ5).
T5 construct: purchased Eurofins (Celle Lévescault)
T5 sequence (Q9NZJ5 30-1116): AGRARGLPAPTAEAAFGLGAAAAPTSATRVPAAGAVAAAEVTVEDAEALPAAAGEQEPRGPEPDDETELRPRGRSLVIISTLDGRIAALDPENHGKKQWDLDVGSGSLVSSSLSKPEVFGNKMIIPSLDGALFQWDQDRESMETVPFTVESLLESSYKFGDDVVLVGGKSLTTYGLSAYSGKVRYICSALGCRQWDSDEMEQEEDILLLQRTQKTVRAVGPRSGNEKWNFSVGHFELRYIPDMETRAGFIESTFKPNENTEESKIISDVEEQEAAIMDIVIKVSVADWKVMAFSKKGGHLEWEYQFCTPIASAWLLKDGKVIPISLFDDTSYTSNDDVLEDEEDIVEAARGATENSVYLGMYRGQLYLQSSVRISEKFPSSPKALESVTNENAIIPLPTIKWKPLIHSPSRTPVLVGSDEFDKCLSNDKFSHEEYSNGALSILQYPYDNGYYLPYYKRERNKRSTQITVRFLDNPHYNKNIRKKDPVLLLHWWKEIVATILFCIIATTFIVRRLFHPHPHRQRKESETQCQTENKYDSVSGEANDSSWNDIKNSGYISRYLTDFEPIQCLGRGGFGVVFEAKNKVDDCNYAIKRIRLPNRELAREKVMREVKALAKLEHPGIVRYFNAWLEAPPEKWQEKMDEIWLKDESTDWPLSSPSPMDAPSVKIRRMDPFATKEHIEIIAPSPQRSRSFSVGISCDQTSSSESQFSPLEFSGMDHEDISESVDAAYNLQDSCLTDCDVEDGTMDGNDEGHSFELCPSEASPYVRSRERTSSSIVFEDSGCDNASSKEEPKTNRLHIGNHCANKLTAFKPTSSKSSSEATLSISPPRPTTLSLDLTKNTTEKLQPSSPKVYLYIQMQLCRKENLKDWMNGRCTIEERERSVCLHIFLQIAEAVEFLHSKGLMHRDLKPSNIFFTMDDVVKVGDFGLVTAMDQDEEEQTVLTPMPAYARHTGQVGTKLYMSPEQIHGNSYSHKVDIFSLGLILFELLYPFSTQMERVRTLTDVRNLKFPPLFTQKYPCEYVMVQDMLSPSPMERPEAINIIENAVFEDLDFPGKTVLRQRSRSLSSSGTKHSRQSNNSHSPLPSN
The conditions noted are these: PEK(h), read-out: Inhibition rate. The essentials: as §1

As a reminder, the inhibition is the drop in the measured response relative to a control, in per cent. For the molecule `C=CC(=O)Nc1cc(-c2cc(-c3cc4c([nH]3)CCNC4=O)ccn2)ccc1OC(F)(F)F` [compound 11], the inhibition at 0.01 µM in assay [1] (10 nM) was 2%; in assay [2] (10 nM), -8%; in assay [3] (10 nM), 4%; in assay [4] (10 nM) it was -3%; in assay [5] (10 nM) it was -1%. Moreover, the inhibition at 0.1 µM was -2% in assay [1] (100 nM); -9% in assay [2] (100 nM); 4% in assay [3] (100 nM); -1% in assay [4] (100 nM); -9% in assay [5] (100 nM). In addition, the inhibition at 1 µM was 2% in assay [1] (1000 nM); -6% in assay [2] (1000 nM); 4% in assay [3] (1000 nM); 11% in assay [4] (1000 nM); 2% in assay [5] (1000 nM).
